Legend:
[1] = target: Cannabinoid receptor 2 (Mus musculus, UniProt P47936); experiment: The compound was evaluated for its affinity towards cannabinoid receptor 2 (CB2) in mouse spleen; type: tissue-based
[2] = target: Cannabinoid receptor 1 (Rattus norvegicus, UniProt P20272); experiment: The compound was evaluated for its affinity towards cannabinoid receptor 1 (CB1) in rat brain; type: tissue-based
Chain of Cannabinoid receptor 1 (P20272 whole entry): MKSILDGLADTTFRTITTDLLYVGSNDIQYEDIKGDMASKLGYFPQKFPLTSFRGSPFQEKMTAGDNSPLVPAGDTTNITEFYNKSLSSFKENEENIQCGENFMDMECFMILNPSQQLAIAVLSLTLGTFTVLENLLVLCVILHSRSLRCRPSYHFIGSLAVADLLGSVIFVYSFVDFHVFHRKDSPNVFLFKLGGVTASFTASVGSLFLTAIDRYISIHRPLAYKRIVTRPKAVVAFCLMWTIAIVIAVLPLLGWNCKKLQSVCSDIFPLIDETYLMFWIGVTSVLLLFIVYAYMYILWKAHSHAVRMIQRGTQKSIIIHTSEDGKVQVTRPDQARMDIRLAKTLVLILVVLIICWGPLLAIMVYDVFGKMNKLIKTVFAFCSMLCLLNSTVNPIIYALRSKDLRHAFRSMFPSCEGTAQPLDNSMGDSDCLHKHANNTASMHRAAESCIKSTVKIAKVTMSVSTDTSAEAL

Chain of Cannabinoid receptor 2 (P47936 whole entry): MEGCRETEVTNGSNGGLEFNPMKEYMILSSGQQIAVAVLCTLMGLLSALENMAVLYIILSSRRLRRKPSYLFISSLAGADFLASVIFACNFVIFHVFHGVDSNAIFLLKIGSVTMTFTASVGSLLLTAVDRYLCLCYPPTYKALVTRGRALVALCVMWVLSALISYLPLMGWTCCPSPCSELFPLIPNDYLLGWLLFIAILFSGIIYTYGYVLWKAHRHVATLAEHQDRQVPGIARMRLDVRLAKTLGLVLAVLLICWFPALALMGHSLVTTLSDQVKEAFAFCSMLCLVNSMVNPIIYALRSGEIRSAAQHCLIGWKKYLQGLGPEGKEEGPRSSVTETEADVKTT

Compound	Ki ([1]; read-out: Ki) [nM]	Ki [2] [nM]	Ki [1] [nM]
C=C(C)[C@@H]1CCC(C)=C[C@H]1c1c(O)cc(C2(CCCCCC)SCCS2)cc1O	50.4	136	–
CCCCCC#Cc1cc(O)c2c(c1)OC(C)(C)[C@@H]1CC=C(C)C[C@@H]21	3.1	0.65	–
CCCCCCC(=O)c1cc(O)c2c(c1)OC(C)(C)[C@@H]1CC=C(C)C[C@@H]21	83.7	21.7	–
CCCCCCC(O)c1cc(O)c2c(c1)OC(C)(C)[C@@H]1CC=C(C)C[C@@H]21 (stereo partly specified)	65.6	86.4	–
CCCCCCC1(c2cc(O)c3c(c2)OC(C)(C)[C@@H]2CC=C(C)C[C@@H]32)CC1	3.3	2.17	–
CCCCCCC1(c2cc(O)c3c(c2)OC(C)(C)[C@@H]2CC=C(C)C[C@@H]32)SCCS1	–	–	0.52

Reference: ChEMBL document CHEMBL1131321, “Pharmacophoric requirements for cannabinoid side chains: multiple bond and C1'-substituted delta 8-tetrahydrocannabinols” (J Med Chem, 1998)
